Values of other authors, collected in patent US5500226A, “Pharmaceutical composition having analgesic activity” (Zambon Group S.p.A., priority 1993, dated 1996).

Details: in words; vs Ibuprofen

CC(C)Cc1ccc([C@H](C)C(=O)O)cc1 [(S)-Ibuprofen, S(+)-2-(4-isobutylphenyl)propionic acid]
Analgesic effect: more rapid, and consequently a more lasting, analgesic effect than Ibuprofen
